Counter-ions that a name gives are not always drawn.

The values below come from PMC9457810, “Synthesis, Structure and Antileishmanial Evaluation of Endoperoxide–Pyrazole Hybrids” (Molecules, 2022).

One series deals with L. infantum. On the set-up: method as in PMID 26014947. The following applies: given in Figure 1A; cited from earlier work.
The next series relates to L. major. Also noted: method as in PMID 30215271. To be noted: given in Figure 1A; cited from earlier work.
Series [1] has as its system L. infantum promastigotes. Nature of the series: Leishmania promastigotes in vitro susceptibility (MTT), L. infantum. It is filed as cell-based. To be noted: Leishmania infantum, 48 h, at least three independent assays, read-out: Promastigotes Susceptibility IC50 ± SEM, L. infantum.
In series [2] the test system is intracellular amastigotes of L. infantum. Nature of the series: Intracellular amastigotes susceptibility in THP-1-derived macrophages (infection index). It is filed as cell-based, Leishmania infantum. The protocol:
The in vitro intracellular amastigote assay was performed using a THP1 cell line maintained in complete RPMI at 37 °C, 5% CO2. After 24 h differentiation of 5 × 10^5 cells/mL into macrophages in sterile 16-chamber LabTek slides (Thermo Scientific, Waltham, MA, USA) with 25 ng mL^−1 phorbol myristic acid (PMA, Sigma), cells were washed once with warm RPMI to remove non-differentiated and non-adherent cells and further infected with 5 × 10^6 promastigotes/mL in a 10:1 parasite–macrophage ratio for another 24 h. After this period, slides were gently washed once with warm RPMI to remove non-internalised promastigotes. The compounds 2o, 2t, OZ1•HCl, OZ1•MsOH, and OZ1•TsOH at concentrations ranging 400 µM to 50 µM were added, and the slides were further incubated at 37 °C, 5% CO2 for 72 h. After this period, cells were washed with warm PBS, fixed with methanol (Sigma) and stained with Giemsa 5% (Sigma). AmB was used as positive control, and macrophages cultivated in RPMI medium and DMSO (0.5% v/v) were used as negative control. The infection index was determined by multiplying the percentage of infected cells and the number of amastigotes per infected cell as previously described. The results represent the average of two experiments. The IC50 for each compound was calculated by fitting the data as a non-linear regression with variable slope using a dose–response inhibitory model in the GraphPad Prism V 8.0 (Dotmatics, San Diego, CA, USA) program.
Selectivity index (SI) was determined for each compound as the quotient between the cytotoxicity in cell lines (CC50) and the inhibitory concentration (IC50) (SI = CC50 in mammalian cells/IC50 L. infantum).

Series [3] can be described thus: In vitro cytotoxicity assessment in THP-1 cell line (MTT). To be noted: human, THP-1 cells, 48 h, MTT; at least three independent assays; read-out: Cytotoxicity CC50 ± SEM. The format is cell-based, human. As for the experimental part: (§1) THP-1 (ATCC® TIB-202TM) human acute monocytic leukemic cell line was obtained from DSMZ, Germany and cultured in RPMI 1640 (Sigma, Darmstadt, Germany) supplemented with 10% (v/v) FBS, 1% (v/v) penicillin-streptomycin (Sigma), and L-glutamine 200 mM (Sigma) at 37 °C, 5% CO2.
(§2) THP-1 cell line was used to calculate the endoperoxide–pyrazole hybrids’ half-maximal cytotoxic concentration (CC50). THP-1 was plated at a final density of 5 × 10^5 cells/mL, in 96-well flat bottom culture plates (VWR), using six different concentrations of the compounds (OZ1, OZ2, T1, T2 and PIR: 800, 400, 200, 100, 50, 25 µM) and amphotericin B (10, 5, 2.5, 1.25, 0.625, 0.313 µM). A blank (RPMI medium alone) and an untreated control (parasites with RPMI medium plus 1% DMSO as vehicle solution) were also included. All the compounds were plated out in quadruplicate and incubated for 48 h at 37 °C ± 1 °C, 5% CO2.
(§3) Following the incubation period, 20 µL per well of MTT was added as described in Section 3.5.2. After absorbance readings, the CC50 values of each compound were determined with GraphPad Prism V 9.0 (Dotmatics, San Diego, CA, USA) as previously described. At least three independent assays were performed.

In series [4] the test system is L. tropica promastigotes. Nature of the series: Morphometric analysis of L. tropica promastigotes (optical microscopy, Giemsa). The following applies: 48 h; OZ1 300 µM, OZ2 200 µM, amphotericin B 0.62 µM. It is filed as cell-based, Leishmania tropica. The protocol: To detect morphological alterations, at the end of the incubation period (48 h), 30 µL of the parasite’s suspension were collected from different treatment concentrations of each compound to prepare smears on glass slides, fixed with methanol, and stained with 5% (v/v) Giemsa (Sigma). Stained slides were examined with bright field in an inverted microscope (Eclipse 80i Nikon, Tokyo, Japan) with 1000× amplification, and images were captured with a Nikon DS-Ri1 camera. Image J (version 1.53k) was used to measure promastigote body and flagellum size of at least 30 parasite samples.
Data were expressed as mean ± standard error of the mean (SEM), and statistical analysis was performed with one-way ANOVA (Bonferoni’s multiple comparisons test) to determine whether differences between means relatively to untreated control were significant at different levels (p < 0.05, p < 0.01, p < 0.001).

Series [5] has as its system L. tropica promastigotes. Briefly: Leishmania promastigotes in vitro susceptibility (MTT), L. tropica. It is filed as cell-based. The following applies: Leishmania tropica, 48 h, at least three independent assays, read-out: Promastigotes Susceptibility IC50 ± SEM, L. tropica.
In a further series the test system is THP-1 cell line. Briefly: In vitro cytotoxicity assessment in THP-1 cell line (MTT). The format is cell-based, human. To be noted: THP-1 cells, 48 h, MTT; at least three independent assays; read-out: Cytotoxicity CC50 ± SEM. As for the experimental part:
as §1, §2, §3

A short description of series [6]: Solubility in culture media (observation). The format is physicochemical. The source says: Calculated intrinsic aqueous solubility (ClogS) values show similar values between trioxolanes (1.20–1.38) and tetraoxanes (1.18–1.21). However, the poor solubility of dispiro 4′’-substituted tetraoxanes may be associated to their structural symmetry. A decrease in molecular symmetry has been correlated to better physicochemical properties, such as absorption and solubility, resulting in enhanced systemic exposure to a drug. So it is anticipated that 3′’-substituted analogues could overcome this solubility issue. Therefore, future optimization to 3”-substituted analogues should be considered. Likewise, conversion of the compounds into water-soluble salts, as well as encapsulation of the endoperoxide structures in delivery systems such as liposomes, could represent alternative strategies to solve the solubility issue.

For another series, the system named is L. donovani. On the set-up: method as in PMID 31979089. To be noted: given in Figure 1A; cited from earlier work.

With `NCC1CCC2(CC1)OOC1(O2)C2CC3CC(C2)CC1C3` (stereo not shown) [LC95], the half-maximal inhibitory concentration (IC50) – broadly, the concentration at which inhibition is half-maximal – in the series with L. infantum is 9.35 ± 3.64 µM.

Take `COc1ccc(-c2cn(-c3ccccc3)nc2/C=N/N=C/c2c(C)nn(-c3ccccc3)c2Cl)cc1` [3i]: the IC50 with L. major was 0.74 ± 0.1 µM.

As for `C[C@@H]1[C@H](O)[C@@H](C)/C=C/C=C/C=C/C=C/C=C/C=C/C=C/[C@H](O[C@@H]2O[C@H](C)[C@@H](O)[C@H](N)[C@@H]2O)C[C@@H]2O[C@](O)(C[C@@H](O)C[C@@H](O)[C@H](O)CC[C@@H](O)C[C@@H](O)CC(=O)O[C@H]1C)C[C@H](O)[C@H]2C(=O)O` [AmB, Amphotericin B, reference compound], the IC50 stood at 0.2 ± 0.01 µM in [1]; 0.08 ± 0.05 µM in [2] (Leishmania infantum, Macrophage, 72 h, THP-1-derived macrophages, 72 h, infection index, two independent assays, read-out: Intracellular Amastigote Susceptibility IC50 ± SEM, L. infantum); 0.3 ± 0.1 µM in the series on L. tropica promastigotes [5]. In series [2] (SI for amastigote forms = CC50 THP-1 / IC50 L. infantum), the “SI (selectivity index)” value worked out at 290. Moreover, the cytotoxic concentration (CC50) – broadly, the concentration that lowers cell viability or growth by half – at 48 h in series [3] was 23 ± 3 µM. Also, the “Body size of L. tropica promastigotes” value in the series with L. tropica promastigotes [4] is 6.463 ± 1.874 µm.

Regarding `Nc1ccnn1C(=O)C1CCC2(CC1)OOC1(OO2)C2CC3CC(C2)CC1C3` (stereo not shown) [T1, (5-Amino-1H-pyrazol-1-yl)(dispiro[cyclohexane-1,3′-[1,2,4,5]tetraoxane-6′,2″-tricyclo-[3.3.1.1^3,7]-decan]-4-yl)methanone], the IC50 (in series [1]; in the series on L. tropica promastigotes [5]) was more than 400 µM throughout. In addition, in the series with THP-1 cell line, the CC50 was more than 800 µM. Besides, the “Solubility in M199 and RPMI medium” value in [6] is listed as “low solubility”.

For `Nc1ccn(C(=O)C2CCC3(CC2)OOC2(OO3)C3CC4CC(C3)CC2C4)n1` (stereo not shown) [T2, (3-Amino-1H-pyrazol-1-yl)(dispiro[cyclohexane-1,3′-[1,2,4,5]tetraoxane-6′,2″-tricyclo[3.3.1.1^3,7]decan]-4-yl)methanone], the CC50 at 48 h in series [3] was more than 800 µM. Besides, in series [6], the “Solubility in M199 and RPMI medium” value was “low solubility”.

`Nc1ccnn1C(=O)C1CCC2(CC1)OOC1(OO2)C2CC3CC(C2)CC1C3` (stereo not shown) (as salt: tosylate) [T1•TsOH, (5-Amino-1H-pyrazol-1-yl) (dispiro[cyclohexane-1,3′-[1,2,4,5]tetraoxane-6′,2″-tricyclo-[3.3.1.1^3,7]-decan]-4-yl) methanone p-tosylate]: the melting point (commonly the temperature, or range, at which the solid turns liquid) was 156 °C (dec.).

As for `O=C1CCC2(CC1)OOC1(OO2)C2CC3CC(C2)CC1C3` [LC140], the IC50 in the series with L. donovani is 2.52 ± 0.65 µM.
